Test results taken from patent US7270949B2, “Fluorescence based T-type channel assay” (Neuromed Pharmaceuticals Ltd., priority 2003, dated 2007).

How the values were obtained:
[1] = test system: α1 subunit of T-type calcium channels; test: Fluorescence based assay for T-type modulators (FLUO-4, gramicidin/NMDG, KCl pulse); assay type: cell-based; conditions: transfected HEK 293 cells; various concentrations; FIG. 5; positive control
Protocol: Mammalian cell lines stably expressing α1 subunit of T-type calcium channels were constructed by transfecting α1 calcium channel subunit DNA into HEK 293 cells and selecting for antibiotic resistance. Briefly, a full-length T-type calcium channel α1 subunit was subcloned into an expression vector with a selectable marker, pcDNA3 (InvitroGen, San Diego, Calif.). The vector was transfected into HEK 293 cells by lipofection and the cells incubated for 16-20 hours. The cells were fed nonselective medium and incubated for an additional 24 hours, then trypsinized and plated at low density in selective medium supplemented with Geneticin (G418) at a concentration of between 600 to 800 μg/ml. […] After growing up each isolated colony to confluency to establish cell lines, the expression of T-type calcium channels was determined by Northern and Southern blotting. […]
Each well was then treated with fluorescence dye solution containing a mixture of 50 μg FLUO-4 AM (Molecular Probes, F-14201); 45.5 μl DMSO; 45.5 μl 20% Pluronic F-127 (Molecular Probes, P-6867) and 4 ml MKH buffer. […]
To each well, EB buffer was added also containing DMSO at a concentration equal to that of the test compounds for negative controls, the known blocker penfluoridol at 2.5 μM for positive control, and test compounds (diluted in DMSO) for experimental wells. […] Background fluorescence was read in all wells. […]

[2] = test system: membrane potential of cells; test: Membrane potential of cells with gramicidin, NMDG substituted for external sodium (FIG. 3); assay type: cell-based; conditions: 5 μg/ml gramicidin, absence of external sodium (NMDG)
Protocol: As shown, when 5 μg/ml gramicidin is added in the absence of external sodium, the membrane potential decreases to about −70 mV.

Row | Compound | blocking calcium ion transport (fluorescence) [1] | membrane potential [2]
1 | OC1(c2ccc(Cl)c(C(F)(F)F)c2)CCN(CCCC(c2ccc(F)cc2)c2ccc(F)cc2)CC1 [penfluoridol] | successful in blocking calcium ion transport | –
2 | gramicidin | – | about −70 mV
